# Experiments:
# [1] = acute toxicity, single oral administration to mice; conditions: mouse, in vivo; single oral administration (p.o.) to mice
# Excerpt: (§1) The results which have been obtained with some representative products in accordance with the invention are reproduced in the Table hereinafter. There are given for each of the compounds indicated therein the dosage administered (in μmol/kg p.o.) as well as in each case the cholesterol resorption (CHORES) determined in percentages of the cholesterol resorption in the pre-period. Moreover, the Table contains data concerning the acute toxicity of the compounds investigated (LD50 in mg/kg in the case of single oral administration to mice).
# [2] = system: intestinal resorption of cholesterol; assay: inhibition of the intestinal resorption of cholesterol in squirrel monkeys (CHORES); type: in vivo; conditions: 100 μmol/kg p.o., [26-^14 C]-cholesterol in feed, faeces collected 2.5 days, % of control values determined prior to medication
# Excerpt: Squirrel monkeys are orally administered the substances to be investigated together with a feed containing a protein, starch, triolein and [26-^14 C]-cholesterol. Thereupon, the faeces is collected for 2.5 days. The difference between the administered and the excreted radioactive cholesterol determined in the faeces is taken as the measurement of resorbed cholesterol. The cholesterol resorption (CHORES) is expressed in percentages of the control values determined prior to the medication.
# as §1
Compound,LD50 [1] [mg/kg],CHORES in % of the pre-period (cholesterol resorption) [2] [%]
CC(C)CCC[C@@H](C)[C@H]1CC[C@H]2[C@@H]3CC[C@H]4C[C@@H](OP(=O)([O-])OCC[N+](C)(C)C)CC[C@]4(C)[C@H]3CC[C@]12C [3β-Cholestanyloxy-phosphorylcholine],5000,26
CC[C@H](CC[C@@H](C)[C@H]1CC[C@H]2[C@@H]3CC=C4C[C@@H](OP(=O)([O-])OCC[N+](C)(C)C)CC[C@]4(C)[C@H]3CC[C@]12C)C(C)C [Stigmast-5-en-3β-yloxy-phosphorylcholine],5000,52
"CC[C@H](/C=C/[C@@H](C)[C@H]1CC[C@H]2[C@@H]3CC=C4C[C@@H](OP(=O)([O-])OCC[N+](C)(C)C)CC[C@]4(C)[C@H]3CC[C@]12C)C(C)C [Stigmasta-5,22-dien-3β-yloxy-phosphorylcholine]",5000,33
"CC[C@H](CC[C@@H](C)[C@H]1CC[C@H]2[C@@H]3CC[C@H]4C[C@@H](OP(=O)([O-])OCC[N+](C)(C)C)CC[C@]4(C)[C@H]3CC[C@]12C)C(C)C [3β-Stigmastanyloxy-phosphorylcholine, 3β-stigmastanyloxy-phosphorylcholine]",4000,36

# — patent US4680290A, “Steroids for the treatment of hypercholesterolemia” (Hoffmann-La Roche Inc., priority 1983, dated 1987)
